These results are taken from patent publication US4925846A, “2-thiazolyl-imidazo[1,2,-a]pyrimidines” (Roussel Uclaf, priority 1986, dated 1990).

For one assay, the target named is benzodiazepine receptor. Description: Benzodiazepine receptor binding (FRB), [3H]-flunitrazepam displacement. As to conditions: 0.6 nM [3H] flunitrazepam, rat forebrain membrane preparations; read-out: FRB (IC50, inhibition of specific binding of [3H]-flunitrazepam). The protocol:
The compounds of formula I are agents which interact with benzodiazepine receptors in the brain, and are useful as minor tranquillizers and for the treatment of obesity or cognitive impairment. Screening for benzodiazepine receptor binding (FRB) was carried out by the method described in published British Patent No. 2,128,989. The values given in Table II are expressed in terms of IC50 (nM).
The affinity of the compounds for the benzodiazepine receptor was assessed using the radioligand [^3 H]-flunitrazepam by modification of the original radioceptor binding method of SQUIRES et al [Nature, (1977), Vol. 266, p. 732].

The subject of another assay is DBA2 mice. The assay is described as follows: Potentiation of threshold seizures induced by audiogenic stimulation in DBA2 mice. It is filed as in vivo. As to conditions: Mus musculus, ip, 0.5 h, i.p., 30 mins pretest, read-out: ED50, potentiation of audiogenic threshold seizures to full tonic seizures. The protocol: (§1) Benzodiazepine inverse agonists properties are indicated by the following tests.
(a) Potentiation of threshold seizures induced by audiogenic stimulation in DBA2 mice [Jensen et al--Life Sciences 33, 393-9 (1983)], DBA2 mice are subjected to audio stimulation. The threshold seizure characteristics (myoclonus, running) are potentiated by active compounds to full tonic seizures and ED50 is calculated.

In the next assay the test system is Wistar rats. The assay is described as follows: Induction of suprahyoid muscle twitching in urethane anaesthetised Wistar rats. It counts as in vivo. As to conditions: Rattus norvegicus, ip, urethane anaesthetised Wistar rats pretreated with nialamide; read-out: MED, increase of amplitude and/or rate of suprahyoid muscle twitch.
Text: as §1
(c) […] of suprahyoid muscle twitching in urethane anaesthetised Wistar rats [James & Gardner--Europ. J. Pharmacol. 113, 223-8 (1985)]. Wistar rats pretreated with nialamide are anaesthetised with urethane and the suprahyoid muscles exposed. These muscles spontaneously twitch and active compounds increase the amplitude and/or rate of twitch.

Another assay has as its system CD1 mice. Description: Potentiation of seizures induced by subcutaneous injection of leptazol to CD1 mice. It counts as in vivo. As to conditions: Mus musculus, ip, 0.5 h, i.p., 30 mins pretest, read-out: ED50, potentiation of leptazol-induced tonic seizures. Here is the method:
as §1
(b) Potentiation of seizures induced by subcutaneous injection of leptazol to CD1 mice.
A dose of leptazol is selected to give 10 to 20% tonic seizures in untreated CD1 mice. Active compounds increase the percentage of tonic seizures and the ED50 is calculated by the method of Lichfield and Wilcoxon (J. Pharmacol Exp. Ther. (1949) 96, 99).

In general, IC50 refers to the midpoint of a concentration-inhibition curve. For `CCc1csc(-c2cn3c(C)c(CC)c(OC)nc3n2)n1` [Example 2, 6-Ethyl-2-(4-ethylthiazol-2-yl)-7-methoxy-5-methylimidazo[1,2-a]pyrimidine], at benzodiazepine receptor, the IC50 turned out to be 220 nM.
What is called ED50 is the dose that gives a 50% effect, or the effect in half of the subjects. Consider `CCc1c(OC)nc2nc(-c3nc(C)cs3)cn2c1C` [Example 1, 6-Ethyl-7-methoxy-5-methyl-2-(4-methylthiazol-2-yl)-imidazo[1,2-a]pyrimidine], for which the ED50 with DBA2 mice came out at 3 mg/kg; in the assay on CD1 mice, 50 mg/kg. Also, the minimal effective dose in the assay with Wistar rats was determined as 10 mg/kg. Further, the IC50 on benzodiazepine receptor came to 112 nM.
As to `CCc1c(OC)nc2nc(-c3nc(C)c(C)s3)cn2c1C` [Example 3, 2-(4,5-Dimethylthiazol-2-yl)-6-ethyl-7-methoxy-5-methylimidazo[1,2-a]pyrimidine], the IC50 on benzodiazepine receptor is 2500 nM.
With `C=CCc1c(OC)nc2nc(-c3nc(C)cs3)cn2c1C` [Example 8, 6-Allyl-7-methoxy-5-methyl-2-(4-methylthiazol-2-yl)imidazo[1,2-a]pyrimidine], the IC50 on benzodiazepine receptor was 100 nM.
In the case of `CCc1c(OC)nc2nc(-c3nccs3)cn2c1C` [Example 10, 6-Ethyl-7-methoxy-5-methyl-2-(thiazol-2-yl)imidazo[1,2-a]pyrimidine], the 50% inhibitory concentration (IC50) at benzodiazepine receptor turned out to be 200 nM.
Consider `CCCc1c(OC)nc2nc(-c3nc(C)cs3)cn2c1C` [Example 9, 7-Methoxy-5-methyl-2-(4-methylthiazol-2-yl)-6-propylimidazo[1,2-a]pyrimidine], for which, on benzodiazepine receptor, the IC50 turned out to be 100 nM.
Same read-out and setting: the result for `CCOC(=O)c1csc(-c2cn3c(C)c(CC)c(OC)nc3n2)n1` [Example 4, Ethyl 2-(6-ethyl-7-methoxy-5-methylimidazo[1,2-a]pyrimidin-2-yl)-thiazole-4-carboxylate] reads 2800 nM; that for `COc1nc2nc(-c3nc(C)cs3)cn2c2c1CCCC2` [Example 7, 5-Methoxy-2-(4-methylthiazol-2-yl)-6,7,8,9-tetrahydroimidazo[1,2-a]quinazoline], 22 nM; that for `CCc1c(OC)nc2nc(-c3nc(C(F)(F)F)cs3)cn2c1C` [Example 6, 6-Ethyl-7-methoxy-5-methyl-2-(4-trifluoromethylthiazol-2-yl)-imidazol[1,2-a]pyrimidine], 2000 nM.
On the same count and under the same terms, the result for `CCc1c(SC)nc2nc(-c3nc(C)cs3)cn2c1C` [Example 5, 6-Ethyl-5-methyl-2-(4-methylthiazol-2-yl)-7-methylthioimidazo[1,2-a]pyrimidine] reads 80 nM.
